The values below come from ChEMBL document CHEMBL1201862, “PubChem BioAssay data set” (2004).

Holding throughout (assay): NCI anticancer screen, dose series, 48 h
Test [1] concerns UO-31.
Test [2] deals with RXF 393.
Test [3] deals with SR.
Test [4] relates to SNB-19.
The subject of test [5] is OVCAR-4.
Test [6] has as its system HCT-116.
The subject of test [7] is NCI/ADR-RES.
The test system of test [8] is CCRF-CEM.
In test [9] the test system is LOX IMVI.
Test [10] deals with U-251.
Test [11] has as its system SK-MEL-5.
Test [12] concerns OVCAR-5.
Test [13] has as its system SNB-75.
Test [14] concerns EKVX.
Test [15] relates to NCI-H226.
Test [16] relates to HCC 2998.
Test [17] has as its system SF-539.
Test [18] relates to RPMI-8226.

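Following 48 hours of exposure in 96-well plates, responses at five concentrations were used to interpolate endpoints linearly. At the GI50, growth is halved.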 The source made the active and inactive calls. Cut-off read from the data, not from the text of the source: active = GI50 up to about 1.1 µM and inactive = higher. Bounds are passed on as bounds.

For `CCCCOc1ccc(NC(=N)Nc2ccc(Cl)cc2)cc1`, the GI50 is 2.43 µM (inactive) in [1]; 11.5 µM (inactive) in test [2]; 3.38 µM (inactive) in [3]; 2.74 µM (inactive) in test [4]; 1.84 µM (inactive) in test [5]; 0.421 µM (active) in test [6]. In addition, the GI50 in [7] is 2.28 µM (inactive); in test [8], 0.251 µM (active); in [9], 3.05 µM (inactive); in [10] it was 9.68 µM (inactive); in [11], 0.284 µM (active); in [12], 1.68 µM (inactive). The GI50 in test [13] is 4.47 µM (inactive); in test [14] it was 2.37 µM (inactive); in test [15] it was 12.7 µM (inactive); in test [16], 0.358 µM (active); in test [17] it was 0.558 µM (active); in test [18], 3.89 µM (inactive).

Regarding `[N-]=[N+]=CC(=O)COC(=O)c1ccccc1`, the GI50 in test [1] was > 100 µM (inactive); in [2], > 100 µM (inactive); in test [3] it was 74.6 µM (inactive); in test [4], > 100 µM (inactive); in test [5], > 100 µM (inactive); in [6] it was > 100 µM (inactive). The GI50 in test [7], in [8], in [9], in test [10], in [11] and in test [12] was > 100 µM (inactive) each time. Besides, the GI50 in test [13] is > 100 µM (inactive); in [14] it was > 100 µM (inactive); in test [15] it was > 100 µM (inactive); in [16] it was > 100 µM (inactive); in [17], > 100 µM (inactive); in [18], 74.1 µM (inactive).

Regarding `[N-]=[N+]=C1C(=O)c2ccccc2-c2ccccc21`, the GI50 in test [1] was 27.2 µM (inactive); in test [2] it was 15.6 µM (inactive); in [3], 24.5 µM (inactive); in [4], 45.8 µM (inactive); in test [5] it was 35.8 µM (inactive); in [6] it was 28.1 µM (inactive). The GI50 in test [7] was 25.6 µM (inactive); in test [8] it was 20.2 µM (inactive); in test [9], 25.9 µM (inactive); in [10], 31.3 µM (inactive); in [11], 15.7 µM (inactive); in [12], 34.1 µM (inactive). For the same compound, the GI50 in test [13] is 20 µM (inactive); in [14], 30.5 µM (inactive); in test [15], 30 µM (inactive); in test [16] it was 51.3 µM (inactive); in test [17], 24.6 µM (inactive); in [18], 26.9 µM (inactive).

Take `COc1ccc2c(c1)C(=O)c1ccccc1C2`: the GI50 in [1] was > 100 µM (inactive); in test [2] it was 13.5 µM (inactive); in [3], 46.7 µM (inactive); in test [4], > 100 µM (inactive); in [5] it was 42.7 µM (inactive); in test [6], 36 µM (inactive). Further, the GI50 was 59.6 µM (inactive) in test [7]; 25.1 µM (inactive) in [8]; 49.9 µM (inactive) in test [9]; 45.2 µM (inactive) in test [10]; 49.9 µM (inactive) in test [11]; > 100 µM (inactive) in test [12]. Besides, the GI50 in test [13] was 26.5 µM (inactive); in [14], 39.6 µM (inactive); in test [15], > 100 µM (inactive); in test [16] it was 70.8 µM (inactive); in [17], 61.1 µM (inactive); in test [18], 46.8 µM (inactive).

Regarding `COC(=O)/C=C1/OC(c2ccc(C)cc2)=C(Cl)C1=O`, the GI50 in test [1] is 17.5 µM (inactive); in test [2], 7.66 µM (inactive); in test [3], 0.489 µM (active); in test [4], 22.2 µM (inactive); in [5], 13.3 µM (inactive); in test [6], 11.7 µM (inactive). Further, the GI50 is 22.1 µM (inactive) in [7]; 3.26 µM (inactive) in [8]; 9.2 µM (inactive) in [9]; 12 µM (inactive) in test [10]; 14.5 µM (inactive) in [11]; 19.1 µM (inactive) in test [12]. Further, the GI50 in test [13] is 16.7 µM (inactive); in test [14], 21.3 µM (inactive); in test [15], 23 µM (inactive); in [16] it was 18.9 µM (inactive); in test [17], 16.6 µM (inactive); in test [18], 3.18 µM (inactive).

As for `CC(C(=O)OCc1ccccc1)(c1ccco1)N1C(=O)OC(c2ccccc2)C1c1ccccc1` (stereo not drawn), the GI50 in [1] is 6.34 µM (inactive); in test [2], > 100 µM (inactive); in [3] it was > 34.8 µM (inactive); in test [4], > 100 µM (inactive); in test [5], > 100 µM (inactive); in test [6], > 100 µM (inactive). In addition, the GI50 is > 100 µM (inactive) in [7]; 4.04 µM (inactive) in test [8]; 14.7 µM (inactive) in [9]; > 100 µM (inactive) in test [10]; > 30.1 µM (inactive) in test [11]; > 100 µM (inactive) in test [12]. In addition, the GI50 in test [13] is > 100 µM (inactive); in test [14], 99.3 µM (inactive); in test [15], > 100 µM (inactive); in test [16], > 100 µM (inactive); in test [17], > 100 µM (inactive); in [18] it was 4.37 µM (inactive).

As for `CC(=O)Nc1ccc(S(=O)(=O)/N=C2\C=CC(=O)c3ccccc32)cc1`, the GI50 in test [1] was 7.48 µM (inactive); in test [2], 6.38 µM (inactive); in [3], 2.25 µM (inactive); in test [4] it was 11.6 µM (inactive); in [5], 1.87 µM (inactive); in test [6], 5.24 µM (inactive). The GI50 in test [7] was 5.9 µM (inactive); in test [8] it was 3.37 µM (inactive); in test [9] it was 2.04 µM (inactive); in test [10], 5.81 µM (inactive); in test [11] it was 2.88 µM (inactive); in [12] it was 8.55 µM (inactive). In addition, the GI50 in test [13] was 5.4 µM (inactive); in [14], 6 µM (inactive); in test [15], 5.97 µM (inactive); in test [16], 3.21 µM (inactive); in test [17] it was 7.66 µM (inactive); in [18], 4.56 µM (inactive).

As for `CCOC(=O)C1(C(N)=O)C(=O)c2ccncc2C1=O` (stereo not drawn), the GI50 in test [1], in test [2], in test [3], in test [4], in test [5] and in test [6] was > 100 µM (inactive) each time. Besides, the GI50 in test [7], in [8], in test [9], in [10], in test [11] and in test [12] was > 100 µM (inactive) in each case. The GI50 in [13], in test [14], in test [15], in [16], in test [17] and in test [18] was > 100 µM (inactive) throughout.

Regarding `C=C(Cl)C(Cl)(CBr)CCC(Br)C(C)(C)Br` (stereo not drawn), the GI50 in test [1] is 8.17 µM (inactive); in [2], 1.8 µM (inactive); in test [3] it was 13.4 µM (inactive); in test [4], 8.75 µM (inactive); in [5], 16.3 µM (inactive); in [6], 1.74 µM (inactive). In addition, the GI50 in test [7] was 5.66 µM (inactive); in [8], 6.21 µM (inactive); in [9], 15.3 µM (inactive); in test [10], 1.77 µM (inactive); in [11] it was 16.6 µM (inactive); in test [12] it was 12.7 µM (inactive). Besides, the GI50 is 2.12 µM (inactive) in [13]; 8.45 µM (inactive) in [14]; 20.1 µM (inactive) in test [15]; 5.75 µM (inactive) in [16]; 1.99 µM (inactive) in test [17]; 0.426 µM (active) in test [18].

Consider `OCC1OC(c2n[nH]c3c(O)ncnc23)C(O)C1O` (stereo not drawn), for which the GI50 in [1] was 8.79 µM (inactive); in test [2], 58.6 µM (inactive); in [3] it was 27.7 µM (inactive); in [4] it was 31 µM (inactive); in [5] it was 7.89 µM (inactive); in test [6], 7.28 µM (inactive). The GI50 in test [7] is 4.22 µM (inactive); in test [8] it was 7.38 µM (inactive); in test [9] it was 3.92 µM (inactive); in test [10], 47.9 µM (inactive); in test [11], 21.5 µM (inactive); in [12], 18.9 µM (inactive). Moreover, the GI50 is > 100 µM (inactive) in test [13]; 28 µM (inactive) in test [14]; 44.9 µM (inactive) in [15]; 18.7 µM (inactive) in test [16]; 26 µM (inactive) in test [17]; 21.9 µM (inactive) in test [18].

On to `NC(=O)c1ccc2c(c1)S(=O)(=O)c1ccccc1C2=O`, for which the GI50 in test [1], in test [2], in test [3], in test [4], in test [5] and in [6] was > 100 µM (inactive) each time. For the same compound, the GI50 in test [7] is > 100 µM (inactive); in test [8], > 100 µM (inactive); in [9], > 100 µM (inactive); in test [10] it was 73.3 µM (inactive); in test [11], > 100 µM (inactive); in test [12] it was > 100 µM (inactive). The GI50 in [13] is 46.8 µM (inactive); in test [14], 10 µM (inactive); in test [15], > 100 µM (inactive); in test [16], > 100 µM (inactive); in test [17], 46.6 µM (inactive); in test [18], > 100 µM (inactive).
